pIC50: −log10 of the molar value. Read-outs that look alike come from different tables or passages of the source.
Key:
aortae of guinea pigs = assay: Inhibition of vascular contraction caused by angiotensin II using pieces of the aortae of guinea pigs; type: cell-based; details: guinea pig chest aorta, contraction induced by angiotensin II, read-out: Vascular contraction inhibition effect IC50
Description: Male Hartly guinea pigs (350 to 400 g) were contused on the head and sacrificed by allowing their blood to discharge from the arteria carotis communis. Immediately after death, the chest aorta was removed. A spiral sample of width 2 to 3 mm and length 20 to 25 mm was cut from the aorta, and was suspended in 4.5 ml of Krebs-Henseleit (K-H) solution (120 mM NaCl, 4.7 mM KCl, […], 1.2 mM KH2PO4, 2.5 mM CaCl2, 25 mM NaHCO3, and 10 mM glucose) in a Magnus vessel. The K-H solution in the Magnus vessel was maintained at 37° C., and a mixture gas of 95% O2 and 5% CO2 was continuously bubbled through the solution. First, 1 g of initial tension was applied to the sample, which was then left to stand rest for about 30 minutes, and 45 μl of 4M KCl solution was added to the solution to induce contraction. After contraction had stabilized, a washing operation was performed to replace the K-H solution. Then, after the sample was left to stand for 30 minutes, 45 μl of solvent DMSO was added to incubate the sample for 15 minutes, and 45 μl of angiotensin II solution (3×10^−8M) was added to induce contraction. This operation was repeated three times and 100% contraction was used as the average. Subsequently, the sample was stabilized by washing. Then, a 45 μl sample of each test compound prepared for each concentration (3×10^−5M to 10^−7M) using DMSO as a solvent was used to observe the inhibition effect of angiotensin II on vascular contraction by performing the same operation as described above. The contraction reaction was recorded on a recorder (RTA-1100, Japan Photoelectronics) via an equi-scale pressure transducer (TB-651T, Japan Photoelectronics). The angiotensin II inhibition effects of the test compounds were evaluated using the IC50 value.

[1] = test system: hypertension caused by angiotensin II; assay: Inhibition effect in the hypertension caused by angiotensin II using rats; type: in vivo, rat; details: i. v., male SD rats, angiotensin II 100 ng/kg; for inhibition in vivo at 1 mg/kg: Rattus norvegicus, iv
Description: Male SD rats (age; 11 weeks; 310 to 330 g) Were used, and indwelling cannula were placed in the femoral aorta and the vena cava, under anesthesia with inactin. The arterial cannula was connected to a pressure transducer to record the blood pressure via a carrier amplifier (AP-601G Japan Photoelectronics) using a polygraph system (RM-6000 Japan Photoelectronics). Prior to tests using the test compounds, 100 ng/kg-equivalent angiotensin II (50 μl of serum solution from the rat) was administered using a regular-pulse cannula to check the hypertensive action. Then, 30 minutes later, a 1 mg/kg-equivalent test compound (50 μl of serum solution from the rat) was administered using the regular-pulse cannula, and similar administration of angiotensin II was performed 5 and 60 minutes later to check the corresponding hypertensive action. The hypertensive effect resulting from the administration of only angiotensin II was taken as a reference value of 100% to determine the antihypertensive rates of the test compounds.

angiotensin II receptor = molecular target: T1, angiotensin II receptor (Oryctolagus cuniculus, UniProt P34976); assay: Binding inhibition of 3H labeled angiotensin II to angiotensin II receptor membrane fraction; parameters: species or system rabbit; details: rabbit adrenal gland membrane, 3H labeled angiotensin II 10^-9M; read-out: Receptor binding inhibition effect IC50
T1 construct: fraction of angiotensin II receptor membrane ([…]) prepared from rabbit adrenal gland; from tissue; host or cells: rabbit adrenal gland membrane fraction
T1 sequence (P34976 1-359): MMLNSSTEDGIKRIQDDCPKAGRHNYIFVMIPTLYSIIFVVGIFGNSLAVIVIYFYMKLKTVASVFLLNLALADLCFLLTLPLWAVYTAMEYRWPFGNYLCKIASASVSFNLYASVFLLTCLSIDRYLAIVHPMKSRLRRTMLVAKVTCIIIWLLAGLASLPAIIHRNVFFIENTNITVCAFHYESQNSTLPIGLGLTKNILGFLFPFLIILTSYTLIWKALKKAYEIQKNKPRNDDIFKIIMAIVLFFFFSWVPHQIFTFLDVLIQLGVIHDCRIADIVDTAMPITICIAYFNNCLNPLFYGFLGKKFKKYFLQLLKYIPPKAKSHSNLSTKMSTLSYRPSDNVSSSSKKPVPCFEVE
Description: The method of Cox et. al (Biochemical Pharmacology 33, 4057-4064 (1984) was modified to conduct angiotensin II receptor binding inhibition experiments. The present compounds (10^−5M to 10^−9M) and ^3H labeled angiotensin II (10^−9M) were added to a fraction of angiotensin II receptor membrane ([…]) prepared from rabbit adrenal gland and were allowed to react in a 20 mM Tris HCl buffer (pH: 7.0) containing 120 mM NaCl, 5 mM EDTA, 0.1 mM PMSF, and 0.2% BSA at 30° C. for 20 minutes so that the final volume was 540 μl. Then, the reaction mixture was quickly passed through a filter (whatman GF/B), and the filter was then rinsed three times in 4 ml of the buffer cooled in ice. Then, the radioactivity of receptor binding ^3H labeled angiotensin II captured on the filter was measured using a liquid scintillation counter. The angiotensin II receptor binding inhibition activity of the present compounds was evaluated based on the concentration (IC 50) required to replace 50% of the total amount of specifically binding ^3H labeled angiotensin II.

[2] = 5 min, 5 minutes after administration, read-out: Inhibition effect in the hypertension by angiotensin II, 5 minutes after administration
[3] = 1 h, 60 minutes after administration, read-out: Inhibition effect in the hypertension by angiotensin II, 60 minutes after administration

| Compound | pIC50 (aortae of guinea pigs) | Inhibition effect in the hypertension by angiotensin II, 5 minutes after administration ([1]; 1 mg/kg, 5 minutes after administration) | Inhibition effect in the hypertension by angiotensin II, 60 minutes after administration ([1]; 1 mg/kg, 60 minutes after administration) | pIC50 (aortae of guinea pigs; Cavia porcellus) | pIC50 (angiotensin II receptor) | melting point [°C] | inhibition in vivo at 1 mg/kg [1, 2] [%] | inhibition in vivo at 1 mg/kg [1, 3] [%] |
| --- | --- | --- | --- | --- | --- | --- | --- | --- |
| 5-Butyl-3-(3-fluorophenyl)-1-[2′-[(4-hydroxy-2(5H)-furanone-5(Z)-ylidene)methyl]biphenyl-4-yl]methyl-1H-1,2,4-triazole [Compound 2h] | 3.66 | + (30% > + ≧ 10%) | − (10% > −) |  |  |  |  |  |
| CCCc1nc(CCC)n(Cc2ccc(-c3ccccc3/C=C3\NC(=O)CC3=O)cc2)n1 [Compound 1a, 3,5-Dipropyl-1-[2′-[(2,4-dioxopyrrolidine-5(Z)-ylidene)methyl]biphenyl-4-yl]methyl-1H-1,2,4-triazole] |  |  |  | < 3.52 | 6.66 | 179 to 180 | 30 to 70 | < 10 |
| CC(C)c1nc(C(C)C)n(Cc2ccc(-c3ccccc3/C=C3\NC(=O)CC3=O)cc2)n1 [Compound 1b, 3,5-Diisopropyl-1-[2′-[(2,4-dioxopyrrolidine-5-(Z)-ylidene)methyl]biphenyl-4-yl]methyl-1H-1,2,4-triazole] |  |  |  | < 3.52 | < 5.15 | 141 to 142 |  |  |
| CCCCc1nc(C2CC2)nn1Cc1ccc(-c2ccccc2/C=C2\NC(=O)CC2=O)cc1 [Compound 1c, 5-Butyl-3-cyclopropyl-1-[2′-[(2,4-dioxopyrrolidine-5(Z)-ylidene)methyl]biphenyl-4-yl]methyl-1H-1,2,4-triazole] |  |  |  | < 3.52 | 5.70 | 166 to 168 |  |  |
| CCCCc1nc(-c2ccccc2)nn1Cc1ccc(-c2ccccc2/C=C2\NC(=O)CC2=O)cc1 [Compound 1e, 5-Butyl-3-phenyl-1-[2′-[(2,4-dioxopyrrolidine-5(Z)-ylidene)methyl]biphenyl-4-yl]methyl-1H-1,2,4-triazole] |  |  |  | < 3.52 | < 5.20 | 180 to 181 |  |  |
| CCCCc1nc(CCc2ccccc2)nn1Cc1ccc(-c2ccccc2/C=C2\NC(=O)CC2=O)cc1 [Compound 1f, 5-Butyl-3-(2-phenylethyl)-1-[2′-[(2,4-dioxopyrrolidine-5(Z)-ylidene)methyl]biphenyl-4-yl]methyl-1H-1,2,4-triazole] |  |  |  | 4.06 | 6.82 | 188 to 189 | 30 to 70 | 30 to 70 |
| CCCCc1nc(-c2ccc(F)cc2)nn1Cc1ccc(-c2ccccc2/C=C2\NC(=O)CC2=O)cc1 [Compound 1g, 5-Butyl-3-(4-fluorophenyl)-1-[2′-[(2,4-dioxopyrrolidine-5(Z)-ylidene)methyl]biphenyl-4-yl]methyl-1H-1,2,4-triazole] |  |  |  | < 3.52 | < 5.21 | 188 to 190 |  |  |
| CCCCc1nc(-c2ccccc2F)nn1Cc1ccc(-c2ccccc2/C=C2\NC(=O)CC2=O)cc1 [Compound 1h, 5-Butyl-3-(2-fluorophenyl)-1-[2′-[(2,4-dioxopyrrolidine-5(Z)-ylidene)methyl]biphenyl-4-yl]methyl-1H-1,2,4-triazole] |  |  |  | < 3.52 | 5.35 | 169 to 170 |  |  |
| CCCCc1nc(-c2ccncc2)nn1Cc1ccc(-c2ccccc2/C=C2\NC(=O)CC2=O)cc1 [Compound 1i, 5-Butyl-3-(pyridine-4-yl)-1-[2′-[(2,4-dioxopyrrolidine-5(Z)-ylidene)methyl]biphenyl-4-yl]methyl-1H-1,2,4-triazole] |  |  |  | < 3.52 | < 5.20 | 144 to 145 |  |  |
| CCCCc1nc(-c2ccco2)nn1Cc1ccc(-c2ccccc2/C=C2\NC(=O)CC2=O)cc1 [Compound 1j, 5-Butyl-3-(furan-2-yl)-1-[2′-[(2,4-dioxopyrrolidine-5(Z)-ylidene)methyl]biphenyl-4-yl]methyl-1H-1,2,4-triazole] |  |  |  | < 3.52 | 5.66 | 169 to 170 |  |  |
| CCCCc1nc(-c2cccs2)nn1Cc1ccc(-c2ccccc2/C=C2\NC(=O)CC2=O)cc1 [Compound 1k, 5-Butyl-3-(thiophene-2-yl)-1-[2′-[(2,4-dioxopyrrolidine-5(Z)-ylidene)methyl]biphenyl-4-yl]methyl-1H-1,2,4-triazole] |  |  |  | < 3.52 | 5.38 | 186 to 187 |  |  |
| CCCc1nc(CCC)n(Cc2ccc(-c3ccccc3/C=C3\OC(=O)C=C3O)cc2)n1 [Compound 2a, 3,5-Dipropyl-1-[2′-[(4-hydroxy-2(5H)-furanone-5(Z)-ylidene)methyl]biphenyl-4-yl]methyl-1H-1,2,4-triazole] |  |  |  | 4.77 | 6.96 | 160 to 161 | 30 to 70 | < 10 |
| CC(C)c1nc(C(C)C)n(Cc2ccc(-c3ccccc3/C=C3\OC(=O)C=C3O)cc2)n1 [Compound 2b, 3,5-Diisopropyl-1-[2′-[(4-hydroxy-2(5H)-furanone-5(Z)-ylidene)methyl]biphenyl-4-yl]methyl-1H-1,2,4-triazole] |  |  |  | < 3.52 | 6.03 | 191 to 193 |  |  |
| CCCCc1nc(-c2ccc(F)cc2)nn1Cc1ccc(-c2ccccc2/C=C2\OC(=O)C=C2O)cc1 [Compound 2g, 5-Butyl-3-(4-fluorophenyl)-1-[2′-[(4-hydroxy-2(5H)-furanone-5(Z)-ylidene)methyl]biphenyl-4-yl]methyl-1H-1,2,4-triazole] |  |  |  | < 3.52 | 6.16 | 175 to 176 |  |  |
| CCCCc1nc(-c2cccc(F)c2)nn1Cc1ccc(-c2ccccc2/C=C2\OC(=O)C=C2O)cc1 [Compound 2h, 5-Butyl-3-(3-fluorophenyl)-1-[2′-[(4-hydroxy-2(5H)-furanone-5(Z)-ylidene)methyl]biphenyl-4-yl]methyl-1H-1,2,4-triazole] |  |  |  |  |  | 184 to 185 |  |  |
| CCCCc1nnc(CCCC)n1Cc1ccc(-c2ccccc2/C=C2\NC(=O)CC2=O)cc1 [Compound 19a] |  |  |  | < 3.52 | 5.10 | 185 to 186 |  |  |
| CCCCc1nnc(CCCC)n1Cc1ccc(-c2ccccc2/C=C2\OC(=O)C=C2O)cc1 [Compound 19b, 3,5-Dibutyl-1-[2′-[(4-hydroxy-2(5H)-furanone-5(Z)-ylidene)-methyl]biphenyl-4-yl]methyl-4H-1,2,4-triazole] |  |  |  | < 3.52 | 6.17 |  |  |  |

From US6358984B1, “2,4-dioxopyrrolidine and 2,4-dioxotetrahydrofuran derivatives and medicines containing the same as the active ingredient” (Lead Chemical Co., Ltd., priority 1996, dated 2002)
